Measurements: publication PMC9151520 (Archives of Toxicology, 2022)
Where “and” joins values, the source holds several entries; their conditions need not be identical. Equal entries are not always repeated. Where two headings read alike, the source gives them in different places.

Tests used:
[1] = tested on: p53 signaling (p53RE-bla HCT-116 cells); assay: cells; format: cell-based
[2] = tested on: p53 signaling (p53RE-bla HCT-116 cells); assay: cells; format: cell-based; conditions: Homo sapiens; for EC50: HCT-116
[3] = tested on: p53 signaling (p53RE-bla HCT-116 cells); assay: cells; conditions: Homo sapiens
[4] = tested on: p53 signaling (p53RE-bla HCT-116 cells); assay: cells; format: cell-based; remark: listed apart in the source
[5] = tested on: p53 signaling (p53RE-bla HCT-116 cells)
[6] = tested on: p53 signaling (p53RE-bla HCT-116 cells); assay: cells; conditions: Homo sapiens; remark: listed apart in the source
[7] = tested on: p53 signaling (p53RE-bla HCT-116 cells); remark: listed apart in the source
[8] = HCT-116, read-out: p53 activation EC50, cherry pick confirmation
[9] = HCT-116, read-out: p53 activation efficacy, cherry pick confirmation
[10] = HCT-116, read-out: p53 activation EC50, primary screening
[11] = HCT-116, read-out: p53 activation efficacy, primary screening

| SMILES | EC50 [2] [µM] | EC50 ([3]; HCT-116) [µM] | Emax ([3]; HCT-116, read-out: efficacy) [%] | EC50 ([4]; Homo sapiens, HCT-116, 0.5 h) [µM] | Viability EC50, cherry pick confirmation (p53RE-bla HCT-116 cells) | Viability EC50, primary screening (p53RE-bla HCT-116 cells) | Viability efficacy, cherry pick confirmation (p53RE-bla HCT-116 cells) | Viability efficacy, primary screening (p53RE-bla HCT-116 cells) | p53 activation EC50, primary screening [1] | p53 activation efficacy, primary screening [1] | EC50 [3, 8] [µM] | Emax [3, 9] [%] | p53 activation EC50, cherry pick confirmation [5] | p53 activation efficacy, cherry pick confirmation [5] | p53 activation EC50, cherry pick confirmation [1] | p53 activation efficacy, cherry pick confirmation [1] | EC50 [3, 10] [µM] | Emax [3, 11] [%] | p53 activation EC50, primary screening [5] | p53 activation efficacy, primary screening [5] | further results |
| --- | --- | --- | --- | --- | --- | --- | --- | --- | --- | --- | --- | --- | --- | --- | --- | --- | --- | --- | --- | --- | --- |
| c1ccc2cc3c(cc2c1)-c1cccc2cccc-3c12 [Benzo(k)fluoranthene] | 32.9 | 37 | 565 | 10.4 |  |  |  |  |  |  |  |  |  |  |  |  |  |  |  |  | Viability EC50, HLM (p53RE-bla HCT-116 cells): inactive; Viability EC50, No MS (p53RE-bla HCT-116 cells): inactive; Viability EC50, RLM (p53RE-bla HCT-116 cells): inactive; Viability Efficacy, HLM (p53RE-bla HCT-116 cells): inactive; Viability Efficacy, No MS (p53RE-bla HCT-116 cells): inactive; Viability Efficacy, RLM (p53RE-bla HCT-116 cells): inactive; p53 activation Efficacy, No MS [1]: 189.362% and 164.004%; EC50 ([1]; Homo sapiens, HCT-116, read-out: p53 activation EC50, No MS): 8.42 µM; EC50 ([1]; read-out: p53 activation EC50, No MS): 12.2 µM |
| COP(N)(=S)Oc1ccccc1C(=O)OC(C)C (stereo not drawn) [Isocarbophos] | 1.86 | 4.93 | 83.1 | 25.6 | inactive | inactive | inactive | inactive | inactive | inactive | 3.72 | 78.7 | inactive | inactive |  |  |  |  |  |  | EC50 ([1]; Homo sapiens, HCT-116, read-out: p53 activation EC50, cherry pick confirmation): 2.05 µM; Emax ([1]; Homo sapiens, HCT-116, read-out: p53 activation efficacy, cherry pick confirmation): 32.4% |
| CC(=O)NS(=O)(=O)c1ccc(N)cc1 [Sulfacetamide] |  |  |  |  |  |  |  |  |  |  |  |  |  |  |  |  |  |  |  |  | Viability EC50, HLM (p53RE-bla HCT-116 cells): inactive; Viability EC50, No MS (p53RE-bla HCT-116 cells): inactive; Viability EC50, RLM (p53RE-bla HCT-116 cells): inactive; Viability Efficacy, HLM (p53RE-bla HCT-116 cells): inactive; Viability Efficacy, No MS (p53RE-bla HCT-116 cells): inactive; Viability Efficacy, RLM (p53RE-bla HCT-116 cells): inactive; p53 activation EC50, No MS [1]: inactive; p53 activation Efficacy, No MS [1]: inactive; EC50 ([6]; HCT-116, read-out: p53 activation EC50, HLM): 44.2 µM; p53 activation EC50, RLM [7]: inactive; p53 activation Efficacy, RLM [7]: inactive; p53 activation EC50, HLM [5]: inactive |
| C[C@]12CC[C@H]3[C@@H](CC[C@@]45O[C@@H]4C(O)=C(C#N)C[C@]35C)[C@@H]1CC[C@@H]2O [Trilostane] |  |  |  |  |  |  |  |  |  |  |  |  |  |  |  |  |  |  |  |  | Viability EC50 (p53RE-bla HCT-116 cells): inactive; Viability efficacy (p53RE-bla HCT-116 cells): inactive; p53 activation EC50 [1]: inactive; EC50 ([1]; Homo sapiens, HCT-116, read-out: p53 activation EC50): 44.1 µM; Emax ([1]; Homo sapiens, HCT-116, read-out: p53 activation efficacy): 98.3%; EC50 ([6]; HCT-116, read-out: p53 activation EC50): 41 µM; Emax ([6]; HCT-116, read-out: p53 activation efficacy): 53.3%; p53 activation EC50 [7]: inactive; p53 activation efficacy [7]: inactive; p53 activation EC50 [5]: inactive |
| CCOP(=S)(OCC)SCSP(=S)(OCC)OCC [Ethion] | 3.29 | 6.2 | 53.8 | 5.91 |  |  |  |  |  |  |  |  |  |  |  |  |  |  |  |  | Viability EC50 (p53RE-bla HCT-116 cells): inactive; Viability efficacy (p53RE-bla HCT-116 cells): inactive; p53 activation EC50 [1]: inactive; p53 activation efficacy [1]: inactive; p53 activation efficacy [7]: 48.0253; EC50 ([7]; read-out: p53 activation EC50): 2.04 µM; p53 activation EC50 [5]: inactive |
| c1ccc2c(c1)-c1cccc3cccc-2c13 [Fluoranthene] |  |  |  |  | inactive | inactive | inactive | inactive | inactive | inactive |  |  | inactive | inactive | inactive | inactive | 24.4 | 33.6 | inactive | inactive | p53 activation EC50, cherry pick confirmation [7]: inactive; p53 activation efficacy, cherry pick confirmation [7]: inactive |
| COP(=S)(OC)Oc1ccc([N+](=O)[O-])c(C)c1 [Fenitrothion] | 10.4 | 9.91 | 116 | 4.18 | inactive | inactive | inactive | inactive | inactive | inactive | 9.34 | 93.3 | inactive | inactive | inactive | inactive | 2.58 | 59.9 | inactive | inactive |  |
| Cc1cc(OC(=O)N(C)C)nn1C(=O)N(C)C [Dimetilan] | 5.11 | 5.44 | 34.6 |  | inactive | inactive | inactive | inactive | inactive | inactive | 6.19 | 33.8 | inactive | inactive | inactive | inactive |  |  |  |  | Emax ([2]; HCT-116, read-out: efficacy): 43.6%; EC50 [4]: Inactive |
| COP(=S)(OC)Oc1nc(Cl)c(Cl)cc1Cl [Chlorpyrifos-methyl] | 24 | 15.5 | 45 | 1.78 | inactive | inactive | inactive | inactive | inactive | inactive | 21.6 | 62.8 | inactive | inactive | inactive | inactive | 11 | 36.2 | inactive | inactive |  |
